Patent US20240335575A1, “METHOD AND APPARATUS FOR INACTIVATING PATHOGENS IN UNITS OF WHOLE BLOOD USING SUPERPARAMAGNETIC NANOPARTICLES COATED WITH CHEMILUMINESCENCE REAGENTS AND BROAD-SPECTRUM ANTI-VIRAL THERAPEUTICS” (Aphios Corporation, priority 2021, published 2024)

Legend:
BVDV [1] = assay: BVDV inactivation in spiked RBCC by doxorubicin alone; type: cell-based, Bovine Viral Diarrhea Virus; details: for Unwashed Titer / Washed Titer: 37° C. 2 hours in the dark; for Unwashed Titer: doxorubicin Low = 0.53 mM, High = 1.6 mM; for Combined VRF: treatment plus washing, compared to mean unwashed RBC controls; for Unwashed VRF: compared to mean titer of untreated RBC controls; for Washed VRF: compared to mean titer of washed untreated RBC controls
Procedure: Two levels of doxorubicin (low and high), RBCC, virus and DMEM (—Ca^++, —Mg^++) were prepared to all contain equivalent titers of BVDV calculated to be 6.23 log10 TCID50/mL (logs) based on the titer of the original virus stock.
The components were mixed and incubated at 37° C. for 2 hours in the dark followed by titration of unwashed and washed samples as previously described. Washing rows of wells with dilutions 1 and 2 was performed the next day. Final CPE were read 2 weeks post-infection. Cells were also monitored for cytotoxicity from the treatment components other than the virus 1 day and 2 weeks post-infection as in previous experiments.
The various combinations tested, the titers obtained and the calculated VRFs compared to the mean titer of the untreated RBC controls are listed in Table 4. There was no hemolysis or clumping for any of the samples at the end of the treatment period.

[2] = tested on: Human Adenovirus-2 (HAd-2); assay: Earlier inactivation of HAd-2 in unwashed RBCC samples; type: cell-based; details: doxorubicin alone, observed previously
BVDV [3] = assay: BVDV inactivation in spiked human RBCC by hypericin with luciferase system; type: cell-based, Bovine Viral Diarrhea Virus; details: for Unwashed Titer / Washed Titer: RT 2 hours in the dark; for Unwashed Titer / Unwashed VRF: unwashed samples; for Unwashed Titer: doses per sample label; for Washed Titer / Washed VRF: washed samples; for Combined VRF: treatment plus washing, compared to unwashed untreated RBC control; for Unwashed VRF: compared to titer of untreated RBC control; for Washed VRF: compared to washed untreated RBC control
Procedure: Ten different combinations of DMEM (—Ca^++, —Mg^++), RBCC, virus, hypericin, Luciferin, ATP and luciferase were prepared to all contain equivalent titers of BVDV calculated to be 6.48 log10TCID50/mL based on the titer of the original virus stock. The concentrations of hypericin tested were 0, 40 and 200 μg/mL. Luciferase was tested at 0, 0.8 and 4.0 μM. Luciferin and ATP were present at 80 and 800 μM respectively when luciferase was present and absent in the absence of luciferase.
The components were mixed and incubated at RT for 2 hours in the dark followed by titration of unwashed and washed samples as previously described. Washing rows of wells with dilutions 1 and 2 was performed 3 days post-infection. Final CPEs were read 10 days post-infection.
The various combinations tested, the titers obtained and the calculated VRFs compared to the titer of the untreated RBC control are listed in Table 2.

RBC = assay: Cytotoxicity, interference, RBC morphology and integrity after hypericin treatment; type: cell-based
Procedure: Cytotoxicity and interference studies are performed per CPMP/FDA guidelines to calculate the reduction in viral titers due to these factors and exclude them from the calculated reduction factors resulting from the antiviral treatment. The antiviral compounds are removed from the system by washing the erythrocytes. Appropriate controls are kept to determine the contribution of washing to the viral reduction factors.

Row | SMILES | Unwashed Titer (BVDV [1]) [log10 TCID50/mL] | Washed Titer (BVDV [1]) [log10 TCID50/mL] | Combined VRF (BVDV [1]) [logs] | Unwashed VRF (BVDV [1]) [logs] | Washed VRF (BVDV [1]) [logs] | Unwashed Titer (BVDV [3]) [log10TCID50/mL] | Washed Titer (BVDV [3]) [log10TCID50/mL] | Combined VRF (BVDV [3]) [logs] | Unwashed VRF (BVDV [3]) [logs] | Washed VRF (BVDV [3]) [logs] | also measured
1 | COc1cccc2c1C(=O)c1c(O)c3c(c(O)c1C2=O)C[C@@](O)(C(=O)CO)C[C@@H]3O[C@H]1C[C@H](N)[C@H](O)[C@H](C)O1 [Dox-H, Doxorubicin] | 3.10 | 3.10 | 2.50 | 2.50 | −0.19 | – | – | – | – | – | –
2 | COc1cccc2c1C(=O)c1c(O)c3c(c(O)c1C2=O)C[C@@](O)(C(=O)CO)C[C@@H]3O[C@H]1C[C@H](N)[C@H](O)[C@H](C)O1 [Dox-L, Doxorubicin] | 3.23 | 3.10 | 2.50 | 2.38 | −0.19 | – | – | – | – | – | –
3 | COc1cccc2c1C(=O)c1c(O)c3c(c(O)c1C2=O)C[C@@](O)(C(=O)CO)C[C@@H]3O[C@H]1C[C@H](N)[C@H](O)[C@H](C)O1 [Doxorubicin, (1S,3S)-3-glycoloyl-3,5,12-trihydroxy-10-methoxy-6,11-dioxo-1,2,3,4,6,11-hexahydrotetracen-1-yl 3-amino-2,3,6-trideoxy-α-L-lyxo-hexo-pyranoside] | – | – | – | – | – | – | – | – | – | – | viral inactivation activity against BVDV (BVDV [1]; doxorubicin treatment alone): has viral inactivation activity; viral inactivation activity against HAd-2 virus [2]: has viral inactivation activity
4 | Cc1cc(O)c2c(=O)c3c(O)cc(O)c4c5c(O)cc(O)c6c(=O)c7c(O)cc(C)c8c1c2c(c34)c(c78)c65 [HH-LN, Hypericin] | – | – | – | – | – | 3.10 | 2.48 | 3.87 | 3.25 | 1.50 | –
5 | Cc1cc(O)c2c(=O)c3c(O)cc(O)c4c5c(O)cc(O)c6c(=O)c7c(O)cc(C)c8c1c2c(c34)c(c78)c65 [HL-LN, Hypericin] | – | – | – | – | – | 3.48 | <2.34 | >4.01 | 2.87 | >1.64 | –
6 | Cc1cc(O)c2c(=O)c3c(O)cc(O)c4c5c(O)cc(O)c6c(=O)c7c(O)cc(C)c8c1c2c(c34)c(c78)c65 [Hypericin] | – | – | – | – | – | – | – | – | – | – | impact on cytotoxicity, interference, RBC morphology and integrity (RBC; hypericin 40 μg/mL with CDP-Star 0.1 mM): very little impact; impact on cytotoxicity, interference, RBC morphology and integrity (RBC; hypericin 40 μg/mL with luciferase 0.16 μM): very little impact
